The source of these data is PMC3777804 (Journal of computer-aided molecular design, 2013).

The subject of this experiment is cell-cell fusion of TZM-bl target cells and HL2/3 effector cells (HXB2 Env). The experiment can be described thus: cell-cell fusion, luciferase reporter. Format: cell-based, HIV-1. The conditions noted are these: read-out: IC50 CCF, 6 hours, 1% DMSO, results ±50%. (In general: In a reporter assay the amount or activity of a reporter protein is the signal.)
For the substance [Phe]-Trp, the IC50 – broadly, the point on the concentration scale where inhibition reaches its midpoint – was found to be 9 µM.
Take [Trp]-Phe: the IC50 stood at 4 µM.
[Trp]-Trp: the IC50 is 19 µM.
